The nature of series [1]: Solubility in PBS (pH 7.4) and diluted HCl (pH 1.1) by HPLC. Format: physicochemical.
Series [2] can be described thus: Caco-2 cell permeability assay (CacoReady). Format: in vitro ADME. As to conditions: human, apical 200 μM, HBSS pH 6.5, 1% DMSO. The protocol: The permeability coefficient (Papp value) was obtained from Caco-2 monolayer studies predicting oral/intestinal bioavailability of the tested compound. The assay was performed using CacoReady^TM ready-to-use kits from ReadyCell according to the manufacturer’s protocol. […] The concentration of ZED1227 in the basal and apical media was determined by HPLC. The initial concentration of ZED1227 in the apical medium was 200 μM. Propranolol (20 μM final concentration) was used as a control to validate each ready-to-use plate. Compound stock solutions were prepared in DMSO and further diluted to 1% DMSO using HBSS pH 6.5 to yield the desired working concentration.
(Caco-2 monolayers are a common model of the intestinal barrier.)

Values joined by “and” are separate entries in the source; they are usually repeats but may differ in a detail not shown here. Identical values can stand only once. Like-named read-outs stand apart in the source and are kept apart here.

With `CCC(CC)CNC(=O)Cn1cccc(NC(=O)[C@H](CC/C=C/C(=O)OC)NC(=O)c2cncn2C)c1=O` [ZED1227, (S,E)-Methyl 7-(1-(2-(2-ethylbutylamino)-2-oxoethyl)-2-oxo-1,2-dihydropyridin-3-ylamino)-6-(1-methyl-1H-imidazole-5-carboxamido)-7-oxohept-2-enoate], the solubility is 100 µM and 50 µg/mL in series [1] (phosphate-buffered saline, aqueous buffer, PBS pH 7.4, read-out: Solubility at pH 7.4); 48900 µM and 25900 µg/mL in series [1] (simulated gastric fluid, diluted HCl pH 1.1, read-out: Solubility at pH 1.1). This compound showed a Papp A→B at 200 μM in series [2] of less than 10 nm/s.

The term solubility denotes how much of the substance goes into solution per volume. As usually defined, the Papp A→B is the apparent permeability from the apical to the basolateral side of a cell layer.

The record behind these values is paper PMC9139979, “Features of ZED1227: The First-In-Class Tissue Transglutaminase Inhibitor Undergoing Clinical Evaluation for the Treatment of Celiac Disease” (Cells, 2022).
